Key:
S. aureus = assay type: cell-based, Staphylococcus aureus; conditions: single compound
Text: (§1) The mutant prevention concentration (MPC) is the drug concentration that blocks the growth of the least susceptible, single-step mutant. Above this concentration, cell growth requires the presence of two or more resistance mutations. Since two concurrent mutations are expected to arise rarely, resistance is expected to develop rarely when drug concentrations are kept above the MPC. For further information regarding the MPC, it is by way of example referred to Drlica, K. (2003). The mutant selection window and antimicrobial resistance. Journal of Antimicrobial Chemotherapy, 52(1), 11-17; and to Blondeau, J. M. (2009). New concepts in antimicrobial susceptibility testing: the mutant prevention concentration and mutant selection window approach. Veterinary dermatology, 20(5-6), 383-396.

[1] = tested on: Staphylococcus aureus Newbould 305 (ATCC 29740); experiment: S. aureus mouse mastitis model (MMM), intramammary treatment; assay type: in vivo, lactating CD-1 mice; conditions: for Median CFU log10: glands harvested 18 h after inoculation
Protocol: The mice were treated intramammarily (IMAM) with enrofloxacin, fosfomycin and a combination of enrofloxacin and fosfomycin as detailed in Table 1 four hours after inoculation. Each treatment group contained at least 3 mice (6 glands). Fourteen hours later (18 hours after inoculation) mice were sacrificed, mammary glands were harvested and the CFU content evaluated by plating 10-fold serial dilutions of mammary gland homogenates. The CFU content was expressed as log10 count. The detection limit was 200 CFU/g of gland. Glands with less than 200 CFU/g were regarded as cleared of S. aureus (see Table 1).
For each treatment group median log10 reductions of CFU were determined by subtracting the median log10 CFU value of the respective group from the median log10 CFU value of the untreated control group.

[2] = tested on: Streptococus uberis, Staphylococus aureus, Escherichia coli, other streptococci and mixed infections; experiment: Field study, dairy cattle with clinical mastitis; assay type: in vivo; conditions: 400 mg cefazolin and/or 1000 mg fosfomycin per quarter, paraffin based ointment, three times at 24 h interval; milk samples 1-3 weeks after treatment
Protocol: In a first field-study, dairy cattle with clinical mastitis were treated under field conditions with either cefazolin, fosfomycin or a combination of both compounds. […] The diseased quarters were treated with this ointment three consecutive times with an interval of 24 hours between each application. When a milk sample was taken from the diseased udder quarters before the treatment for the diagnosis of mastitis infection, pathogenic bacteria typical of clinical mastitis were isolated, i.e. Streptococus uberis, Staphylococus aureus, Escherichia coli, other streptococci and mixed infections of the aforementioned species. […] Diseased udder quarters were considered cured when the clinical symptoms of mastitis had disappeared within one week without requiring a new antibiotic treatment and when the causative pathogenic bacterium, found in the diagnostic milk sample shortly before treatment, could not be isolated from any of the milk samples taken from one to three weeks following treatment. The cure rate of mastitis infection was higher in the udder quarters treated with the combination ointment (cefazolin together with fosfomycin), i.e. 17/38 (45%), than in the quarters treated with the ointment containing cefazolin alone ( 11/35, 31%) or fosfomycin alone ( 13/37, 35%).

E. coli = assay type: cell-based, Escherichia coli; conditions: single compound
Text: as §1

Staphylococcus aureus = experiment: Field trial, dairy cattle with subclinical mastitis; assay type: in vivo; conditions: 400 mg cefazolin and/or 1000 mg fosfomycin per quarter, six times at 12 h interval; for Cure rate of S. aureus infection / Cure rate of S. aureus infection (cured quarters/treated quarters): paraffin based ointment, milk samples 3 and 4 weeks after treatment
Protocol: In another field trial, dairy cattle with subclinical mastitis, i.e. persistent, chronic udder infections caused by Staphylococcus aureus, were treated with either cefazolin, fosfomycin or a combination of both compounds. […] The affected quarters were treated with this ointment six consecutive times with an interval of 12 hours between each application. […] Following treatment, the level of udder inflammation, as measured by the Somatic Cell Count in the milk samples post treatment, was lower in the udders treated with the cefazolin-fosfomycin combination (46% of milk samples with a SCC lower than 300,000 cells/mL) than in udders treated with cefazolin alone (30% of milk samples with a SCC lower than 300,000 cells/mL) or with fosfomycin alone (24% of milk samples with a SCC lower than 300,000 cells/mL).

[3] = dose 100 μg IMAM, listed as enrofloxacin

| Compound | MPC against S. aureus (S. aureus) | Cleared glands % (less than 200 CFU/g) ([1]; dose 100 μg IMAM) | log10 CFU reduction (median, vs untreated control) ([1]; dose 100 μg IMAM) | Cure rate of mastitis infection [2] | Cure rate of mastitis infection (cured quarters/treated quarters) [2] | MPC against E. coli (E. coli) | Cure rate of S. aureus infection (Staphylococcus aureus) | Cure rate of S. aureus infection (cured quarters/treated quarters) (Staphylococcus aureus) | Cured quarters with SCC returned to normal (lower than 300,000 cells per mL) (Staphylococcus aureus) | Cured quarters with SCC returned to normal (lower than 300,000 cells per mL), quarters/treated quarters (Staphylococcus aureus) | Milk samples post treatment with a SCC lower than 300,000 cells/mL (Staphylococcus aureus) | also measured |
| --- | --- | --- | --- | --- | --- | --- | --- | --- | --- | --- | --- | --- |
| CCN1CCN(c2cc3c(cc2F)c(=O)c(C(=O)O)cn3C2CC2)CC1 [Enrofloxacin, enrofloxacin] | 3 µg/mL | 0% | 1.41 log10 | – | – | – | – | – | – | – | – | Median CFU log10 ([1]; dose 100 μg IMAM 4 h after inoculation): 6.8 CFU log10; Cleared glands % (less than 200 CFU/g) [1, 3]: does not eliminate the infection; log10 CFU reduction (median, vs untreated control) [1, 3]: 1.4 log10 |
| CC1(C)S[C@@H]2[C@H](NC(=O)[C@H](N)c3ccc(O)cc3)C(=O)N2[C@H]1C(=O)O [amoxicillin] | – | does not eliminate the infection | 1.6 log10 | – | – | – | – | – | – | – | – | – |
| C[C@@H]1O[C@@H]1P(=O)(O)O [Fosfomycin, [(2R,3S)-3-methyloxiran-2-yl]phosphonic acid] | 1500 µg/mL | does not eliminate the infection | 2.0 log10 | 35% | 13/37 | 200 µg/mL | 57% | 27/47 | 19% | 9/47 | 24% | Cleared glands % (less than 200 CFU/g) ([1]; dose 500 μg IMAM): 0%; log10 CFU reduction (median, vs untreated control) ([1]; dose 500 μg IMAM): 3.3 log10; Median CFU log10 ([1]; dose 500 μg IMAM 4 h after inoculation): 5.0 CFU log10; Cleared glands % (less than 200 CFU/g) ([1]; dose 500 μg IMAM, listed as fosfomycin): does not eliminate the infection; Cleared glands % (less than 200 CFU/g) ([1]; dose 1000 μg IMAM): 0%; log10 CFU reduction (median, vs untreated control) ([1]; dose 1000 μg IMAM): 5.1 log10; Median CFU log10 ([1]; dose 1000 μg IMAM 4 h after inoculation): 3.2 CFU log10; Cleared glands % (less than 200 CFU/g) ([1]; dose 1000 μg IMAM, listed as fosfomycin): does not eliminate the infection |
| Cc1nnc(SCC2=C(C(=O)O)N3C(=O)[C@@H](NC(=O)Cn4cnnn4)[C@H]3SC2)s1 [cefazolin] | 1.25 µg/mL | does not eliminate the infection | 5.1 log10 | 31% | 11/35 | 64 µg/mL | 46% | 20/43 | 23% | 10/43 | 30% | Cleared glands % (less than 200 CFU/g) ([1]; dose 50 microgram IMAM): does not eliminate the infection; log10 CFU reduction (median, vs untreated control) ([1]; dose 50 microgram IMAM): 4.5 log10 |
| CC[C@@H]1CCN[C@H](C(=O)N[C@@H]([C@H]2O[C@H](SC)[C@H](O)[C@@H](O)[C@H]2O)[C@H](C)Cl)C1 [pirlimycin] | 2 µg/mL | – | – | – | – | – | – | – | – | – | – | Cleared glands % (less than 200 CFU/g) ([1]; dose 10 microgram IMAM): does not eliminate the infection; log10 CFU reduction (median, vs untreated control) ([1]; dose 10 microgram IMAM): 3.3 log10 |

Source: patent publication US10265330B2, “Pharmaceutical compositions and treatment of mastitis” (BAYER ANIMAL HEALTH GMBH, priority 2012, dated 2019)
